Data taken from patent publication US10363239B2, “Method for inhibiting growth of cancer cells” (Pain Therapeutics, Inc., priority 2013, dated 2019).

Tests used:
melanoma cells = assay: Glucose deprivation-induced apoptosis markers (cleaved PARP-1, caspase-3) by Western blotting; type: cell-based, human; conditions: 1 nM; Day 3 and 4
Protocol: . Cell density was assessed at day 3 and 4. […] . Data are mean±S.E.M. of ratios (FIG. 4B) and % inhibition (FIG. 4C). […] N=5. *p<0.01 compared to Day 0. #p<0.01 compared to vehicle (open bars).
. The cells were washed with PBS, incubated in 0.1% fetal bovine serum (FBS) for 16 hours and incubated in glucose-free 0.1% FBS-containing medium for up to 4 days in the presence of vehicle or 1 nM Compound C0105. The cells in the entire well were collected by centrifugation. […] The protein concentrations were measured by the Bradford method.
The cells were homogenized and the obtained homogenates were centrifuged to remove nucleus and mitochondria. […] The level of apoptotic cell death was determined using Western blotting in 50 μg solubilized cell lysates with antibodies against cleaved PARP-1 (Asp^214) and caspase-3 (Asp^175), both at 1:1000 dilution. […] Bands at the relevant molecular masses of Ki67 and PCNA were quantified by densitometric scan. Membranes were stripped, washed 5× in 0.1% PBST (2 minutes each wash) and the actin content analyzed by immunoblotting using monoclonal anti-actin to illustrate even loading.

[1] = test system: pS2152FLNA, FLNA-associated PTEN and PP2A in primary human pancreatic epithelial cells (HPEC); assay: pS2152FLNA and FLNA-associated PTEN and PP2A in anti-FLNA immunoprecipitate (Western blotting); type: cell-based; conditions: 0.1-5 nM; 4 days
Protocol: The effect of contact with Compound C0105 on the levels of pS^2152FLNA and FLNA-associated phosphatases, PTEN and PP2A subclasses was determined in MiaPaCa2 and HPECs. Cells were contacted with vehicle and 0.1-5 nM Compound C0105 for 4 days. Cells were washed, solubilized and the cell lysate derived was immunoprecipitated with anti-FLNA. The levels of […] and FLNA-associated phosphatases, PTEN and PP2A subclasses in the anti-FLNA immunoprecipitate were determined by Western blotting. The density of protein bands was quantified by densitometric scan. […] Data are expressed as mean±S.E.M. of ratios (FIGS. 27C, 27E and 27G) and percentage inhibition (FIGS. 27D, 27F and 27H). […] N=4. **p<0.05, *p<0.01 compared to vehicle (open bars). […]
(§1) The cell lysates were diluted 5-fold with immunoprecipitation buffer and immunoprecipitated with anti-FLNA, -Akt, -mTOR and -ERK2 as described previously [Talbot et al., J Clin Inv 122(4):1-23 (2012); Wang et al., J Neurosci 32(29):9773-9784 (2012)]. The levels of FLNA linkages, activated phosphorylated Akt (pS^473 and pT^308), phosphorylated mTOR (pS^2448) and phosphorylated ERK2 (pY/pT) were determined in anti-FLNA, -Akt, -mTOR and -ERK2 immunoprecipitates by Western blotting with appropriate antibodies directed against PTEN, PP2A, K-RAS, ras-GAP (FLNA linkages), pS^473Akt, pT^308Akt, pS^2448mTOR and pY/pT ERK2 (activation of Akt, mTOR and ERK2).

[2] = test system: pS2448mTOR, pS473Akt, pY/pT-ERK2 in HMEC; assay: Activated (phosphorylated) mTOR, Akt and ERK2 levels (immunoprecipitation, Western blotting); type: cell-based, human; conditions: 0.1-5 nM; 4 days
Protocol: (§2) Cells were treated with vehicle and 0.1-5 nM C0105 for 4 days. Cells were washed, solubilized and the resultant cell lysate was immunoprecipitated with anti-mTOR, -Akt or -ERK2. The levels of pS^2448mTOR, pS^473Akt, pY/pTERK2 in the respective anti-mTOR, -Akt, and -ERK2 immunoprecipitates were determined by Western blotting (not shown). The density of protein bands was measured by densitometric scanning. […] FIGS. 13C and 13G and FIGS. 13D and 13H show similarly obtained data for immunoprecipitates from HMEC and HPEC cells, respectively. Cell treatments and data handling were as discussed in FIG. 12.
(§3) To study the effect of Compound C0105 on pS^2152FLNA levels, FLNA linkages to key regulators including protein phosphatases as well as activated Akt (pS^473-, pT^308-Akt), mTOR ([…]) and ERK (pY/pT-ERK) levels, the cancer and normal cells were cultured to approximately 90% confluency and treated with vehicle or varying concentrations of Compound C0105. The cells were washed with warm phosphate-buffered saline (PBS), pH 7.2, dissociated, homogenized by sonication and solubilized using 0.5% NP-40 (nonoxynol 40), 0.2% sodium cholate and 0.5% digitonin for 1 hour at 4° C.
as §1

[3] = test system: pS2448mTOR, pS473Akt, pY/pT-ERK2 in HPEC; assay: as above; type: cell-based, human; conditions: 0.1-5 nM; 4 days
Protocol: as §2, §3, §1

[4] = test system: pS2448mTOR, pS473Akt, pY/pT-ERK2 in HTB-22 cells; assay: as above; type: cell-based, human; conditions: 0.1-5 nM; 4 days
Protocol: as §2, §3, §1

[5] = test system: pS2448mTOR, pS473Akt, pY/pT-ERK2 in MiaPaCa2 cells; assay: as above; type: cell-based, human; conditions: 0.1-5 nM; 4 days
Protocol: as §2, §3, §1

[6] = test system: FLNA-bound K-ras and ras-GAP in BxPc3 cells; assay: FLNA-bound K-ras and ras-GAP (immunoprecipitation, Western blotting); type: cell-based, human; conditions: 0.1, 0.5, 1 and 5 nM
Protocol: (§4) Thus, melanoma, two different pancreatic cancerous cell lines (MiaPaCa2 and BxPc3) and a glioblastoma cell line (U87) were treated with zero (vehicle), 0.1, 0.5, 1 and 5 nM Compound C0105 as previously discussed, and FLNA-bound K-ras and ras-GAP were immunoprecipitated, separated by Western blotting and the blot densities determined as discussed previously.
as §3, §1

[7] = test system: FLNA-bound K-ras and ras-GAP in MiaPaCa2 cells; assay: as above; type: cell-based, human; conditions: 0.1, 0.5, 1 and 5 nM
Protocol: as §4, §3, §1

[8] = test system: FLNA-bound K-ras and ras-GAP in glioblastoma cell line (U87); assay: as above; type: cell-based, human; conditions: 0.1, 0.5, 1 and 5 nM
Protocol: as §4, §3, §1

[9] = test system: FLNA-bound K-ras and ras-GAP in melanoma cells; assay: as above; type: cell-based, human; conditions: 0.1, 0.5, 1 and 5 nM
Protocol: as §4, §3, §1

## CN1CCC2(CC1)NCC(=O)N2Cc1ccccc1 [Compound C0105]
Melanoma cells
  Glucose deprivation-induced cell death by cleaved PARP-1 and caspase-3: reduces glucose deprivation-induced cell death
[1]
  Phosphatase (PTEN, PP2A) associations with FLNA: no effect
  pS2152FLNA level: no effect
[2]
  mTOR, Akt and ERK activation (phosphorylated mTOR, Akt and ERK): has little effect on mTOR, Akt and ERK activation
[3]
  mTOR, Akt and ERK activation (phosphorylated mTOR, Akt and ERK): has little effect on mTOR, Akt and ERK activation
[4]
  mTOR, Akt and ERK activation (phosphorylated mTOR, Akt and ERK): has little effect on mTOR, Akt and ERK activation
[5]
  mTOR, Akt and ERK activation (phosphorylated mTOR, Akt and ERK): has little effect on mTOR, Akt and ERK activation
[6]
  FLNA-bound K-ras: reduces K-ras
  FLNA-bound Ras-GAP: increases Ras-GAP
[7]
  FLNA-bound K-ras: reduces K-ras
  FLNA-bound Ras-GAP: increases Ras-GAP
[8]
  FLNA-bound K-ras: reduces K-ras
  FLNA-bound Ras-GAP: increases Ras-GAP
[9]
  FLNA-bound K-ras: reduces K-ras
  FLNA-bound Ras-GAP: increases Ras-GAP
